Measured values as given in patent publication US7704508B2, “Babesia subtilisin” (New York Blood Center, priority 2007, dated 2010).
Starred links: 1 amine or outer side, 2 acyl side, 3 side chain; linkers in the order of their positions; H or OH if unused. Non-standard residues stand in square brackets, D forms with d. Residues, ends and D or L forms follow the SMILES beside them. ξ: configuration not given here. *: point of attachment. Sta = CC(C)C[C@H](N)[C@@H](O)CC(=O)O; Isovaleryl = CC(C)CC(=O)*; ξF = NC(Cc1ccccc1)C(=O)O; CO = O=C([*:1])[*:2]

Tests used:
B. divergens [1] = assay: Effect of protease inhibitors on B. divergens erythrocyte invasion (parasitemia by YOYO-1 flow cytometry, T10); type: cell-based; details: for inhibition of invasion: 50 and 100 μM, relative to control; for inhibition at 50 µM / inhibition at 100 µM: Erythrocyte
Method: (§1) Parasitemia for B. divergens was assessed in human RBCs using a modification of the methods of Barkan et al. (Int. J. Parasitol. 30:649-53, 2000) and Jimenez-Diaz et al. (Cytometry A 67:27-36, 2005), both of which are incorporated by reference herein for all they contain regarding assessment of parasitemia. DNA content was measured after staining with YOYO-1 (a high affinity cell-impermeant dye that increases green fluorescence by 1000-fold when bound to dsDNA) observed infected erythrocytes compared with non-infected human erythrocytes for B. divergens.
(§2) To assess the effect of various protease inhibitors, parasitemia was assessed in 180 parasite samples taken at different time points (0 and after 10, 24, 48 and 72 h). In parallel with the evaluation of the parasitemia by FACS (fluorescence activated cell sorting), 60 random parasite samples were analyzed by light microscopy using Giemsa-stained thin blood smears, with 500-1000 RBCs being counted for each smear. […] Integration of the numbers of events represented in the right peak provides a direct estimate of the parasitemia, where one infected cell is one event.
(§3) Protease inhibitors were tested for their ability to inhibit the invasion and growth of B. divergens in vitro.
(§4) The effects of EGTA, a chelating agent capable of binding metal ions including Ca^2+, on the invasion and growth of B. divergens was tested. EGTA cannot permeate the biological membrane of cells so its effects are only on the chelation of extracellular ions. As many serine proteases require Ca^2+ for activity, EGTA also functions as a serine protease inhibitor.

B. divergens [2] = assay: Effect of protease inhibitors on B. divergens growth in culture (parasitemia by YOYO-1 flow cytometry, T72); type: cell-based; details: for inhibition of growth / decrease of parasitemia after 72 h: 50 and 100 μM, compared to control; for Growth T72 50 μM (inhibition) / Growth T72 100 μM (inhibition) / inhibition at 50 µM / inhibition at 100 µM: T72
Method: as §1, §2, §3, §4

BdSUB-1 = assay: Effect of brefeldin A on BdSUB-1 processing during secretory transport (western blot); type: cell-based, B. divergens; details: 40 μg/ml BFA in methanol, 1 hour, 37° C., western blot with PfSUB1m antibodies
Method: Monitoring the effect of brefeldin A. The effects of brefeldin A (BFA, Sigma) on BdSUB-1 processing during secretory transport was monitored using ^35S-radiolabeled B. divergens cultures. The drug was prepared as a stock solution in methanol at 1 mg ml^−1 and then added to parasite cultures to a final concentration of 40 μg ml^−1 BFA. Methanol was added to the control cultures and cells were cultured at 37° C. in a […], 5% nitrogen and 5% oxygen for 1 hour. Samples were washed in PBS, lysed in saponin buffer and analyzed by western blot using the anti-PfSUB1m antibodies.
BdSUB-1 undergoes post-translational processing during secretory transport. […] In order to examine whether BdSUB-1 undergoes intracellular post-translational processing steps within the parasite secretory pathway, brefeldin A (BFA) was employed, which blocks secretory transport of proteins from the endoplasmic reticulum (ER) to the Golgi apparatus. Western-blot analysis was performed on parasite lysates that were obtained from cultures grown in the presence or absence of BFA, using anti-PfSUB1m antibodies. […] Thus, BdSUB-1 is initially synthesized as a large precursor protein of ˜78 kDA and cleavage of the signal peptide results in the formation of p75, which is the largest detectable protein seen in the assays. This p75 is then processed to p55, which then gets converted to p48 in the Golgi. […]

## O=c1oc(Cl)c(Cl)c2ccccc12 [3,4 DCI]
B. divergens [1]; T10
  Invasion T10 50 μM (inhibition): 38.0 ± 2.0%
  Invasion T10 100 μM (inhibition): 43.0 ± 1.2%
B. divergens [1]
  inhibition of invasion: 40%
B. divergens [2]
  Growth T72 50 μM (inhibition): 70.7 ± 1.4%
  Growth T72 100 μM (inhibition): 76.0 ± 2.3%
  inhibition of growth / decrease of parasitemia after 72 h: 76%

## NCCc1ccc(S(=O)(=O)F)cc1 [ABSF, 4-(2-aminoethyl)benzenesulfonyl fluoride]
B. divergens [1]; T10
  Invasion T10 50 μM (inhibition): 3.3 ± 6.8%
  Invasion T10 100 μM (inhibition): 34.0 ± 9.0%
B. divergens [2]
  Growth T72 50 μM (inhibition): 8.8 ± 7.4%
  Growth T72 100 μM (inhibition): 28.0 ± 5.0%

## CC(C)[C@H](NC(=O)[C@H](CCCNC(=N)N)NC(=O)NC(Cc1ccccc1)C(=O)O)C(=O)N[C@H](C=O)CCCNC(=N)N (stereo partly drawn) [Antipain, (1-carboxy-2-phenylethyl)carbamoyl-L-arginyl-L-valylargininal] ({ξF-CO}-Arg-Val-Arg-aldehyde)
B. divergens [1]; T10
  inhibition at 50 µM: 33 ± 6.5%
  inhibition at 100 µM: 37.7 ± 14.1%
B. divergens [2]
  inhibition at 50 µM: 15 ± 8.4%
  inhibition at 100 µM: 16 ± 8.5%

## C[C@H]1CCC/C=C/[C@@H]2C[C@H](O)C[C@H]2[C@H](O)/C=C/C(=O)O1 [BFA, brefeldin A]
BdSUB-1
  BdSUB-1 processing / secretory transport: blocked the secretory transport of BdSUB-1 from the ER to the Golgi apparatus

## O=C(O)CN(CCOCCOCCN(CC(=O)O)CC(=O)O)CC(=O)O [EGTA, ethylene glycol tetraacetic acid]
B. divergens [1]; 1 mM, T10
  Invasion T10 1 mM (inhibition): 48.0 ± 3.1%
B. divergens [1]; 3 mM, T10
  Invasion T10 3 mM (inhibition): 52.0 ± 2.6%
B. divergens [1]; Ca2+ added in the same concentration as EGTA
  reversal of inhibition of invasion and growth by Ca2+: completely reversed
B. divergens [1]; EGTA 1, 2 and 3 mM
  percentage of inhibition on invasion: 50%
B. divergens [2]
  Growth T72 1 mM (inhibition): 82.0 ± 0.4%
  Growth T72 3 mM (inhibition): 83.0 ± 0.5%
  growth of the parasite after 72 h, lower than the control: 83%

## O=S(=O)(F)Cc1ccccc1 [PMSF, phenylmethylsulfonyl fluoride]
B. divergens [1]; T10
  Invasion T10 50 μM (inhibition): 28.0 ± 8.9%
  Invasion T10 100 μM (inhibition): 35.0 ± 18.0%
B. divergens [2]
  Growth T72 50 μM (inhibition): 45.0 ± 5.2%
  Growth T72 100 μM (inhibition): 46.7 ± 3.3%

## CC(C)CC(=O)N[C@H](C(=O)N[C@H](C(=O)N[C@@H](CC(C)C)[C@@H](O)CC(=O)N[C@@H](C)C(=O)N[C@@H](CC(C)C)[C@@H](O)CC(=O)O)C(C)C)C(C)C [Pepstatin, pepstatin] (Isovaleryl-VV[Sta]A[Sta]-OH)
B. divergens [1]; T10
  inhibition at 50 µM: 17 ± 6.4%
  inhibition at 100 µM: 2 ± 0.8%
B. divergens [2]
  inhibition at 50 µM: 9.1 ± 3.1%
  inhibition at 100 µM: 16 ± 9.2%

## Cc1ccc(S(=O)(=O)N[C@@H](CCCCN)C(=O)CCl)cc1 [TLCK, N-α-tosyl-L-lysine chloromethyl ketone]
B. divergens [1]; T10
  Invasion T10 50 μM (inhibition): 64.0 ± 3.1%
  Invasion T10 100 μM (inhibition): 60.0 ± 2.0%
B. divergens [1]
  inhibition of invasion: ~60%
B. divergens [2]
  Growth T72 50 μM (inhibition): 92.1 ± 3.0%
  Growth T72 100 μM (inhibition): 94.1 ± 0.9%
  inhibition of growth / decrease of parasitemia after 72 h: approximately 90%
B. divergens [2]; microscopy of treated cultures
  morphology of the parasites during invasion and growth inhibition assay: no alteration in the morphology of the parasites
